Laboratory results: the NIST ThermoML archive (doi:10.1016/j.jct.2016.03.036)
“And” between values parts separate entries of the source, which are not always exact repeats. Equal values may be shown once. ± gives the expanded uncertainty stated by the source.

Assay: xn = mol fraction of the nth substance listed
Conditions: Gas, Spherical resonator

[Ar] [argon] + O=C=O
Conditions	speed of sound
274.99 K, 4022.9 kPa, x2 = 0.501	263.92 ± 0.45 m/s and 263.91 ± 0.45 m/s
274.99 K, 4023.2 kPa, x2 = 0.501	263.86 ± 0.45 m/s
274.99 K, 6072.9 kPa, x2 = 0.501	257.99 ± 0.44 m/s and 257.96 ± 0.44 m/s
274.99 K, 6073.3 kPa, x2 = 0.501	258.01 ± 0.44 m/s
275 K, 2006.3 kPa, x2 = 0.501	270.61 ± 0.46 m/s and 270.59 ± 0.46 m/s
275 K, 2006.4 kPa, x2 = 0.501	270.44 ± 0.46 m/s
275 K, 8215.3 kPa, x2 = 0.501	254.18 ± 0.43 m/s and 254.17 ± 0.43 m/s
275 K, 8216.3 kPa, x2 = 0.501	253.76 ± 0.43 m/s
276.09 K, 501.14 kPa, x2 = 0.7498	264.91 ± 0.45 m/s
276.09 K, 1998.9 kPa, x2 = 0.7498	255.17 ± 0.49 m/s and 255.16 ± 0.44 m/s
276.09 K, 1999 kPa, x2 = 0.7498	255.07 ± 0.43 m/s
276.09 K, 4003.2 kPa, x2 = 0.7498	240.29 ± 0.41 m/s
276.09 K, 4003.3 kPa, x2 = 0.7498	240.28 ± 0.41 m/s
276.09 K, 4003.6 kPa, x2 = 0.7498	240.29 ± 0.41 m/s
276.09 K, 4995.2 kPa, x2 = 0.7498	231.83 ± 0.41 m/s and 231.82 ± 0.41 m/s
276.09 K, 4995.7 kPa, x2 = 0.7498	232.3 ± 0.41 m/s
276.09 K, 5295.4 kPa, x2 = 0.7498	229.02 ± 0.41 m/s and 229.01 ± 0.41 m/s
276.09 K, 5296 kPa, x2 = 0.7498	229.56 ± 0.41 m/s
276.09 K, 5399.3 kPa, x2 = 0.7498	228 ± 0.41 m/s
276.09 K, 5399.8 kPa, x2 = 0.7498	228.57 ± 0.41 m/s
276.09 K, 5502.4 kPa, x2 = 0.7498	226.98 ± 0.41 m/s
276.09 K, 5503 kPa, x2 = 0.7498	227.57 ± 0.4 m/s
290.01 K, 485.29 kPa, x2 = 0.7498	271.44 ± 0.46 m/s
290.01 K, 1978.9 kPa, x2 = 0.7498	263.38 ± 0.45 m/s and 263.41 ± 0.45 m/s
290.01 K, 1979 kPa, x2 = 0.7498	263.3 ± 0.45 m/s
290.01 K, 4023.1 kPa, x2 = 0.7498	251.71 ± 0.43 m/s and 251.65 ± 0.43 m/s
290.01 K, 4023.4 kPa, x2 = 0.7498	251.64 ± 0.43 m/s
290.01 K, 6011.9 kPa, x2 = 0.7498	239.66 ± 0.41 m/s
290.01 K, 6012.1 kPa, x2 = 0.7498	239.67 ± 0.41 m/s
290.01 K, 6012.7 kPa, x2 = 0.7498	240.25 ± 0.41 m/s
290.01 K, 8057 kPa, x2 = 0.7498	227.35 ± 0.4 m/s
290.01 K, 8057.4 kPa, x2 = 0.7498	227.74 ± 0.4 m/s
290.02 K, 8057.1 kPa, x2 = 0.7498	227.32 ± 0.4 m/s
299.85 K, 8170.1 kPa, x2 = 0.501	275.03 ± 0.47 m/s
299.85 K, 8170.2 kPa, x2 = 0.501	275.04 ± 0.47 m/s
299.85 K, 8170.7 kPa, x2 = 0.501	275.13 ± 0.47 m/s
299.94 K, 1986.8 kPa, x2 = 0.501	283.88 ± 0.48 m/s and 283.89 ± 0.48 m/s
299.94 K, 1987 kPa, x2 = 0.501	283.79 ± 0.48 m/s
299.94 K, 4020.8 kPa, x2 = 0.501	279.77 ± 0.47 m/s
299.95 K, 494.36 kPa, x2 = 0.501	287.27 ± 0.48 m/s
299.95 K, 4020.5 kPa, x2 = 0.501	279.84 ± 0.47 m/s and 279.82 ± 0.47 m/s
299.95 K, 6007.5 kPa, x2 = 0.501	276.82 ± 0.47 m/s
299.95 K, 6007.9 kPa, x2 = 0.501	276.82 ± 0.47 m/s
299.95 K, 7657.9 kPa, x2 = 0.501	275.37 ± 0.47 m/s
299.95 K, 7658 kPa, x2 = 0.501	275.38 ± 0.47 m/s
299.96 K, 7658.9 kPa, x2 = 0.501	275.44 ± 0.47 m/s
310 K, 5999.6 kPa, x2 = 0.7498	258 ± 0.44 m/s
310.01 K, 488.28 kPa, x2 = 0.7498	280.3 ± 0.47 m/s
310.01 K, 1980.9 kPa, x2 = 0.7498	274.11 ± 0.46 m/s and 274.12 ± 0.46 m/s
310.01 K, 1981 kPa, x2 = 0.7498	274.01 ± 0.46 m/s
310.01 K, 4023.9 kPa, x2 = 0.7498	265.68 ± 0.45 m/s and 265.67 ± 0.45 m/s
310.01 K, 4024.2 kPa, x2 = 0.7498	265.61 ± 0.45 m/s
310.01 K, 5999.7 kPa, x2 = 0.7498	257.99 ± 0.44 m/s
310.01 K, 6000.2 kPa, x2 = 0.7498	258.01 ± 0.44 m/s
310.01 K, 8062.5 kPa, x2 = 0.7498	251.41 ± 0.43 m/s
310.01 K, 8062.7 kPa, x2 = 0.7498	251.51 ± 0.43 m/s
310.01 K, 8063.3 kPa, x2 = 0.7498	251.52 ± 0.43 m/s
